Reference: patent US20050233457A1, “Recombining viral vectors for the tetracycline-regulated expression of genes” (priority 2002, published 2005)

Tested on: HT29 colon carcinoma cells
Test: Luciferase expression in lysates of adenovirally infected HT29 cells
Format: cell-based, human
Settings: HT29, Ad.3r-luc m.o.i. 30, 24 hours
Protocol: […], Colo205, SkCO-1, AsPc-1, HepG2, MCF-7, BT-20, HeLa, RT4 and U266 cells were seeded in six and twelve (U266) vial-plates at a concentration of 1×10^6 cells per cavity for 6 hours before transfection. The larger HeLa, RT-4 and 293 cells were seeded in a concentration of 5×10^5 cells per vial. U266 myeloma cells were allowed to grow in suspension culture and infected. Purified viral particles were diluted in media without supplementation and the cells were exposed to 500 μl of the suitable virus dilution per vial for 1 hour. After removal of the infectious supernatant, complete media which had been supplemented with different concentrations of doxycycline, were added. The media were changed every 24 hours.
24 hours after infection with Ad.CMV-luc or Ad.3r-luc, the cells were harvested with 150 μl of cell culture lysis reagent according to the manufacturer's (Promega) instructions. The luciferase activity in 20 μl of cell lysate was measured using a Bertold LB9507 luminometer and luciferase assay substrate (Promega). […] The protein concentration was determined using the DC protein assay kit (BioRad, Hercules, Calif.).
Human colon carcinoma cells HT29 are extremely receptive for adenoviral transduction, as has been shown previously (A. Block et al. Cancer Gene Therapy 7 (2000) 438-445). […] The luciferase activity was determined in cell lysates in relation to the dissolved cell protein. […]

C[C@H]1c2cccc(O)c2C(=O)C2=C(O)[C@]3(O)C(=O)C(C(N)=O)=C(O)[C@@H](N(C)C)[C@@H]3[C@@H](O)[C@@H]21 [doxycycline]
doxycycline concentration leading to a significant reduction in gene expression: 100 pg/mL
